Assay [1] has as its system CEM. The assay is described as follows: Fluorescent probe incorporation (polyamine transport activity) by flow cytometry, CEM. As to conditions: (cell intensity with probe presence) - (cell intensity without probe presence), emission 525 nm. Type of assay: cell-based. How it is done:
(§1) Cells taken from biopsies are mechanically separated with or without the presence of trypsin depending on the constitution of the tissue under consideration. The haematopoietic cells are separated and isolated following conventional preparation methods for blood cells. Once isolated after a fairly short time to ensure the viability of the cells being examined, the cells are placed in the presence of the probe such as synthesized in examples 1 to 3 for example, and left to incubate in the recommended culture medium for the tissue under consideration in the presence of aminoguanidine. Aminoguanidine is used to prevent in vitro denaturating of the polyamines. […] An incubation time of one to four hours is sufficient and allows detection of fluorescence by immunochemistry or flow cytometry, by choosing excitation and emission wavelengths compatible with the substituent of the fluorescent probe. This analysis is conducted by flow cytometry or histochemistry following standard methodology in the study described below, by exciting the probe obtained in example 1, N-(3-aminopropyl)-N′-{3-[methyl-(7-nitrobenzo[1,2,5]oxadiazol-4-yl)-amino]-propyl}-butane-1,4-diamine with a 488 nm source and measuring fluorescence emission at 525 nm. […]
(§2) For all the assayed lines, the capacity to incorporate the fluorescent probe, characterized by the fluorescence measured by flow cytometry, was also measured.

The subject of assay [2] is BLUE-1. Briefly: Fluorescent probe incorporation (polyamine transport activity) by flow cytometry, BLUE-1. As to conditions: (cell intensity with probe presence) - (cell intensity without probe presence), emission 525 nm. It is filed as cell-based. The protocol:
as §1, §2

Assay [3] concerns BL-41. The assay is described as follows: Fluorescent probe incorporation (polyamine transport activity) by flow cytometry, BL-41. It is filed as cell-based. As to conditions: (cell intensity with probe presence) - (cell intensity without probe presence), emission 525 nm. The protocol: as §1, §2
In assay [4] the test system is A549 cells. The assay is described as follows: Selectivity of the probes vis-a-vis tumor cells: probe incorporation in A549 cells compared with MRC-5 cells. It is filed as cell-based, human. The protocol:
as §1

Assay [5] relates to U-937. Briefly: Fluorescent probe incorporation (polyamine transport activity) by flow cytometry, U-937. It is filed as cell-based. The note with it: (cell intensity with probe presence) - (cell intensity without probe presence), emission 525 nm. The protocol: as §1, §2
Assay [6] has as its system KG-1. The assay is described as follows: Fluorescent probe incorporation (polyamine transport activity) by flow cytometry, KG-1. It is filed as cell-based. As to conditions: (cell intensity with probe presence) - (cell intensity without probe presence), emission 525 nm. How it is done: as §1, §2
Assay [7] has as its system BL-41. Briefly: Cytotoxicity, residual ATP (ATPlite kit), 72 hours, BL-41. It is filed as cell-based. As to conditions: Homo sapiens, BL-41 leukemic line, 72 hours incubation. How it is done: (§3) An anticancer compound is used, a derivative of epipodophyllotoxin, whose intracellular penetration is dependent on the polyamine transporter, such as the compound described in example 27 of patent application WO 2005/100363 and, as reference compound, etoposide which is a non-vectored epipodophyllotoxin. These two compounds have the same mechanism of action on cancer cells: they are both inhibitors of topoisomerase 2.
(§4) A panel of leukemic lines was assayed to ascertain probe incorporation, here the one described in example 1, regarding the sensitivity to a vectored agent such as the compound in example 27 of patent application WO 2005/100363 and by comparison with non-vectored etoposide. After an incubation time of 72 hours with the compound of example 27 in patent application WO 2005/100363 or with etoposide, cytotoxicity was evaluated using the ATPlite kit. Cells from the same line were also incubated in the presence of the probe described in example 1, and were analyzed by flow cytometry. Fluorescence intensity measured at 525 nm was followed from 0 to 1 hour 30 minutes and the slope of intensity variation was calculated.

Assay [8] has as its system KG-1. Briefly: Cytotoxicity, residual ATP (ATPlite kit), 72 hours, KG-1. It is filed as cell-based. The note with it: Homo sapiens, KG-1 leukemic line, 72 hours incubation. The protocol:
as §3, §4

Assay [9] relates to U-937. Briefly: Cytotoxicity, residual ATP (ATPlite kit), 72 hours, U-937. The note with it: Homo sapiens, U-937 leukemic line, 72 hours incubation. Type of assay: cell-based. How it is done: as §3, §4
Assay [10] concerns BLUE-1. The assay is described as follows: Cytotoxicity, residual ATP (ATPlite kit), 72 hours, BLUE-1. Type of assay: cell-based. The note with it: BLUE-1 leukemic line, 72 hours incubation. How it is done:
as §3, §4

For assay [11], the system named is CEM. The assay is described as follows: Cytotoxicity, residual ATP (ATPlite kit), 72 hours, CEM. Type of assay: cell-based. As to conditions: Homo sapiens, CCRF-CEM, CEM leukemic line, 72 hours incubation. The protocol: as §3, §4

As to `CN(CCCNCCCCNCCCN)c1ccc([N+](=O)[O-])c2nonc12` [Example 1, N-(3-aminopropyl)-N′-{3-(methyl-(7-nitrobenzo[1,2,5]oxadiazol-4-yl)-amino)-propyl}-butane-1,4-diamine], the Polyamine transport activity was 421 Arbitrary Unit of fluorescence in assay [1]; 58 Arbitrary Unit of fluorescence in assay [2]; 164 Arbitrary Unit of fluorescence in assay [3]; 33 Arbitrary Unit of fluorescence in [5]; 17 Arbitrary Unit of fluorescence in assay [6]. Moreover, the “Incorporation differential tumoral cells versus healthy cells” value in [4] (flow cytometry, A549 vs MRC-5) was “confirmed by flow cytometry”. Besides, the “Incorporation of the probe in tumoral cells versus cells from healthy tissue” value in assay [4] (fluorescence microscope, slide cultured cells, A549 (FIG. 1A) vs MRC-5 healthy lung (FIG. 1B), excitation 488 nm, emission 525 nm) is “much greater incorporation”.
With `COc1cc([C@@H]2c3cc4c(cc3[C@@H](O[C@@H]3O[C@@H]5CO[C@@H](C)O[C@H]5[C@H](O)[C@H]3O)[C@H]3COC(=O)[C@H]23)OCO4)cc(OC)c1O` [Etoposide, etoposide], the IC50 came out at 400 nM in assay [7]; 5000 nM in [8]; 400 nM in [9]; 1000 nM in assay [10]; 60 nM in assay [11].

Source of the values: patent US8569011B2, “Fluorescent derivatives of polyamines, method for preparing same and applications thereof as diagnosis tools in the treatment of cancerous tumors” (Pierre Fabre Medicament, priority 2007, dated 2013).
